In BigSolDB 2.1:

COc1cnc(Cl)nc1Cl
Details	solubility (mole fraction)
in acetone, 297.35 K	0.348
in acetone, 299.36 K	0.368
in acetone, 301.17 K	0.386
in acetone, 303.13 K	0.403
in acetone, 304.54 K	0.42
in acetone, 306.18 K	0.436
in acetone, 307.53 K	0.45
in acetone, 308.97 K	0.466
in acetone, 310.25 K	0.481
in acetone, 311.37 K	0.492
in ethanol, 299.44 K	0.0474
in ethanol, 301.27 K	0.0527
in ethanol, 303.17 K	0.0584
in ethanol, 305.17 K	0.0655
in ethanol, 307.06 K	0.0745
in ethanol, 309.05 K	0.0855
in ethanol, 310.73 K	0.0972
in ethanol, 312.58 K	0.11
in ethanol, 314 K	0.125
in ethanol, 315.47 K	0.141
in ethanol, 316.61 K	0.158
in ethyl acetate, 295.6 K	0.288
in ethyl acetate, 296.53 K	0.295
in ethyl acetate, 298.25 K	0.311
in ethyl acetate, 300.66 K	0.33
in ethyl acetate, 302.28 K	0.347
in ethyl acetate, 304.15 K	0.364
in ethyl acetate, 305.62 K	0.382
in ethyl acetate, 307.47 K	0.401
in ethyl acetate, 309.19 K	0.422
in ethyl acetate, 311.16 K	0.444
in ethyl acetate, 313.07 K	0.468
in ethyl acetate, 314.57 K	0.49
in ethyl acetate, 316.39 K	0.513
in methanol, 302.37 K	0.0598
in methanol, 303.78 K	0.0659
in methanol, 305.44 K	0.0734
in methanol, 306.57 K	0.0803
in methanol, 308.12 K	0.0893
in methanol, 309.67 K	0.102
in methanol, 311.15 K	0.114
in methanol, 312.43 K	0.13
in methanol, 313.55 K	0.146
in methanol, 314.81 K	0.163
in methanol, 315.8 K	0.181
in methanol, 316.95 K	0.202
in n-heptane, 298.1 K	0.0094
in n-heptane, 299.83 K	0.0104
in n-heptane, 302.1 K	0.0116
in n-heptane, 303.81 K	0.0129
in n-heptane, 305.72 K	0.0141
in n-heptane, 307.55 K	0.0157
in n-heptane, 309.57 K	0.0174
in n-heptane, 310.97 K	0.0192
in n-heptane, 312.89 K	0.0214
in n-heptane, 315.04 K	0.0239
in n-heptane, 317.15 K	0.0268
in n-heptane, 318.83 K	0.0296
in n-heptane, 320.08 K	0.0324
in tetrachloromethane, 298.6 K	0.123
in tetrachloromethane, 299.42 K	0.13
in tetrachloromethane, 300.63 K	0.143
in tetrachloromethane, 301.97 K	0.159
in tetrachloromethane, 303.35 K	0.178
in tetrachloromethane, 304.82 K	0.196
in tetrachloromethane, 305.8 K	0.214
in tetrachloromethane, 306.87 K	0.237
in tetrachloromethane, 308.2 K	0.261
in tetrachloromethane, 309.57 K	0.288
in tetrachloromethane, 310.9 K	0.315
in tetrachloromethane, 312.15 K	0.343
